{"source": "patent US7265148B2", "about": "“Substituted pyrrole-indoles” (Wyeth, priority 2003, dated 2007)", "key": {"[1]": {"target": "T1, recombinant human plasminogen activator inhibitor-1 (PAI-1) (Homo sapiens, UniProt P05121)", "T1 construct": "purchased Molecular Innovations, Royal Oak, Mich", "T1 sequence (P05121 24-402)": "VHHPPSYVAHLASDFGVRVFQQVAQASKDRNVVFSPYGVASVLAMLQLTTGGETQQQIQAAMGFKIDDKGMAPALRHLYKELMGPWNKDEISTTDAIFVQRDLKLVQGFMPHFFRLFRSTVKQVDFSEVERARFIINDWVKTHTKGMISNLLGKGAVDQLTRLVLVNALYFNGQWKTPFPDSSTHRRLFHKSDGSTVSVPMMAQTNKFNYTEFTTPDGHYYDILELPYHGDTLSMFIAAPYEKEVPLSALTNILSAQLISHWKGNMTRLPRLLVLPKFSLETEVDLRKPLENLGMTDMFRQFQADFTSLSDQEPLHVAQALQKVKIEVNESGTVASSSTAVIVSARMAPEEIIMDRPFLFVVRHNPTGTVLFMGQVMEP", "assay": "Primary screen for the PAI-1 inhibition (chromogenic tPA activity)", "assay_type": "biochemical", "conditions": "pH 6.6; for inhibition at 10 µM: 10 μM test compound; for inhibition at 25 µM: 25 μM test compound", "method": "Test compounds are dissolved in DMSO at a final concentration of 10 mM, then diluted 100× in physiologic buffer. The inhibitory assay is initiated by the addition of the test compound (1-100 μM final concentration, maximun DMSO concentration of 0.2%) in a pH 6.6 buffer containing 140 nM recombinant human plasminogen activator inhibitor-1 (PAI-1; Molecular Innovations, Royal Oak, Mich.). Following a 1 hour incubation at room temperature, 70 nM of recombinant human tissue plasminogen activator (tPA) is added, and the combination of the test compound, PAI-1 and tPA is incubated for an additional 30 minutes. Following the second incubation, Spectrozyme-tPA (American Diagnostica, Greenwich, Conn.), a chromogenic substrate for tPA, is added and absorbance read at 405 nm at 0 and 60 minutes. Relative PAI-1 inhibition is equal to the residual tPA activity in the presence of the test compound and PAI-1. Control treatments include the complete inhibition of tPA by PAI-1 at the molar ratio employed (2:1), and the absence of any effect of the test compound on tPA alone."}, "human PAI-1": {"target": "human PAI-1 (Homo sapiens, UniProt P05121)", "sequence (P05121 24-402)": "as above", "assay": "Assay for determining IC50 of inhibition of PAI-1 (tPA-coated plate, antibody detection)", "assay_type": "binding", "conditions": "active PAI-1 bound to tPA-coated plate; pH 7.5", "method": "This assay is based upon the non-SDS dissociable interaction between tPA and active PAI-1. Assay plates are initially coated with human tPA (10 μg/ml). Test compounds of the present invention are dissolved in DMSO at 10 mM, then diluted with physiologic buffer (pH 7.5) to a final concentration of 1-50 μM. Test compounds are incubated with human PAI-1 (50 ng/ml) for 15 minutes at room temperature. The tPA-coated plate is washed with a solution of 0.05% Tween 20 and 0.1% BSA, then the plate is blocked with a solution of 3% BSA. An aliquot of the substituted pyrrole-indole/PAI-1 solution is then added to the tPA-coated plate, incubated at room temperature for 1 hour, and washed. Active PAL-1 bound to the plate is assessed by adding an aliquot of a 1:1000 dilution of the 33B8 monoclonal antibody against human PAI-1, and incubating the plate at room temperature for 1 hour (Molecular Innovations, Royal Oak, Mich.). […] The plate is incubated 45 minutes at room temperature, and color development is determined at OD405 nm. The quantitation of active PAI-1 bound to tPA at varying concentrations of the test compound is used to determine the IC50. Results are analyzed using a logarithmic best-fit equation. The assay sensitivity is 5 ng/ml of human PAI-1 as determined from a standard curve ranging from 0-100 ng/ml."}}}
{"smiles": "O=C(O)c1c(-c2ccccc2)c2cc(-n3cccc3)ccc2n1Cc1ccccc1", "note": "[Example 1, 1-benzyl-3-phenyl-5-(1H-pyrrol-1-yl)-1H-indole-2-carboxylic acid]", "values": [{"measurement": "inhibition at 10 µM", "setting": "[1]", "value": 12, "unit": "%"}, {"measurement": "inhibition at 25 µM", "setting": "[1]", "value": 69, "unit": "%"}]}
{"smiles": "Cn1c(C(=O)N[C@@H](Cc2ccccc2)C(=O)O)c(-c2ccccc2)c2cc(-n3cccc3)ccc21", "note": "[Example 2, N-{[1-methyl-3-phenyl-5-(1H-pyrrol-1-yl)-1H-indol-2-yl]carbonyl}-L-phenylalanine]", "values": [{"measurement": "inhibition at 10 µM", "setting": "[1]", "value": 4, "unit": "%"}, {"measurement": "inhibition at 25 µM", "setting": "[1]", "value": 61, "unit": "%"}]}
{"smiles": "O=C(N[C@@H](Cc1ccccc1)C(=O)O)c1c(-c2ccccc2)c2cc(-n3cccc3)ccc2n1Cc1ccccc1", "note": "[Example 3, N-{[1-benzyl-3-phenyl-5-(1H-pyrrol-1-yl)-1H-indol-2-yl]carbonyl}-L-phenylalanine]", "values": [{"measurement": "inhibition at 10 µM", "setting": "[1]", "value": 15, "unit": "%"}, {"measurement": "inhibition at 25 µM", "setting": "[1]", "value": 52, "unit": "%"}]}
{"smiles": "CC(C)C[C@H](NC(=O)c1c(-c2ccccc2)c2cc(-n3cccc3)ccc2n1Cc1ccccc1)C(=O)O", "note": "[Example 4, N-{[1-benzyl-3-phenyl-5-(1H-pyrrol-1-yl)-1H-indol-2-yl]carbonyl}-L-leucine]", "values": [{"measurement": "inhibition at 10 µM", "setting": "[1]", "value": 18, "unit": "%"}, {"measurement": "inhibition at 25 µM", "setting": "[1]", "value": 90, "unit": "%"}]}
{"smiles": "Cc1ccc(C)n1-c1ccc2c(c1)c(-c1ccccc1)c(C(=O)O)n2Cc1ccccc1", "note": "[Example 5, 1-benzyl-5-(2,5-dimethyl-1H-pyrrol-1-yl)-3-phenyl-1H-indole-2-carboxylic acid]", "values": [{"measurement": "inhibition at 10 µM", "setting": "[1]", "value": 23, "unit": "%"}, {"measurement": "inhibition at 25 µM", "setting": "[1]", "value": 83, "unit": "%"}]}
{"smiles": "Cc1ccc(C)n1-c1ccc2c(c1)c(-c1ccccc1)c(C(=O)N[C@@H](CC(C)C)C(=O)O)n2Cc1ccccc1", "note": "[Example 6, N-{[1-benzyl-5-(2,5-dimethyl-1H-pyrrol-1-yl)-3-phenyl-1H-indol-2-yl]carbonyl}-L-leucine]", "values": [{"measurement": "inhibition at 10 µM", "setting": "[1]", "value": 76, "unit": "%"}, {"measurement": "inhibition at 25 µM", "setting": "[1]", "value": 79, "unit": "%"}, {"measurement": "IC50", "setting": "human PAI-1", "value": 12.9, "unit": "µM"}]}
{"smiles": "O=C(O)c1c(-c2ccccc2)c2cc(-n3cccc3)ccc2n1Cc1ccc(-c2ccccc2)cc1", "note": "[Example 7, 1-(1,1′-biphenyl-4-ylmethyl)-3-phenyl-5-(1H-pyrrol-1-yl)-1H-indole-2-carboxylic acid]", "values": [{"measurement": "inhibition at 10 µM", "setting": "[1]", "value": 56, "unit": "%"}, {"measurement": "inhibition at 25 µM", "setting": "[1]", "value": 90, "unit": "%"}]}
{"smiles": "O=C(O)c1c(-c2ccccc2)c2cc(-n3ccc4ccccc43)ccc2n1Cc1ccc(-c2ccccc2)cc1", "note": "[Example 8, 1′-(1,1′-biphenyl-4-ylmethyl)-3′-phenyl-1′H-1,5′-biindole-2′-carboxylic acid]", "values": [{"measurement": "inhibition at 10 µM", "setting": "[1]", "value": 60, "unit": "%"}, {"measurement": "inhibition at 25 µM", "setting": "[1]", "value": 79, "unit": "%"}]}
{"smiles": "O=C(O)c1[nH]c2ccc(-n3cccc3)cc2c1-c1ccccc1", "note": "[Example 9, 3-phenyl-5-(1H-pyrrol-1-yl)-1H-indole-2-carboxylic acid]", "values": [{"measurement": "inhibition at 10 µM", "setting": "[1]", "value": 19, "unit": "%"}, {"measurement": "inhibition at 25 µM", "setting": "[1]", "value": 47, "unit": "%"}]}
{"smiles": "CC(C)(C)c1ccc(-c2c(C(=O)O)n(Cc3ccccc3)c3ccc(-n4cccc4)cc23)cc1", "note": "[Example 10, 1-benzyl-3-(4-tert-butylphenyl)-5-(1H-pyrrol-1-yl)-1H-indole-2-carboxylic acid]", "values": [{"measurement": "inhibition at 10 µM", "setting": "[1]", "value": 49, "unit": "%"}, {"measurement": "inhibition at 25 µM", "setting": "[1]", "value": 90, "unit": "%"}]}
{"smiles": "CC(C)(C)c1ccc(-c2c(C(=O)O)n(Cc3ccccc3)c3ccc(-n4ccc5ccccc54)cc23)cc1", "note": "[Example 11, 1′-benzyl-3′-(4-tert-butylphenyl)-1′H-1,5′-biindole-2′-carboxylic acid]", "values": [{"measurement": "inhibition at 10 µM", "setting": "[1]", "value": 66, "unit": "%"}, {"measurement": "inhibition at 25 µM", "setting": "[1]", "value": 99, "unit": "%"}]}
{"smiles": "O=C(N[C@@H](Cc1ccccc1)C(=O)O)c1[nH]c2ccc(-n3cccc3)cc2c1-c1ccccc1", "note": "[Example 12, N-{[3-phenyl-5-(1H-pyrrol-1-yl)-1H-indol-2-yl]carbonyl}-L-phenylalanine]", "values": [{"measurement": "inhibition at 10 µM", "setting": "[1]", "value": 39, "unit": "%"}, {"measurement": "inhibition at 25 µM", "setting": "[1]", "value": 51, "unit": "%"}]}
